Values quoted from earlier work as cited in US20120141548A1, “NOVEL FORMULATION OF MELOXICAM” (FUNDACIONUNIVERSIDAD DEL NORTE, priority 2009, published 2012).

Experiments:
[1] = conventional meloxicam

Tmax [1]: 4 to 5 h
water solubility: poorly water soluble
SMILES: Cc1cnc(NC(=O)C2=C(O)c3ccccc3S(=O)(=O)N2C)s1 [Meloxicam, meloxicam]
